Earlier results as cited in patent US20210128691A1 (priority 2019, published 2021).
One block for each compound: values may come before it.

Experiments:
pre-eclampsia = details: dietary supplements, high risk patients
cyclic nucleotide PDE = details: rats made hypothyroid with increased PDE activity
[1] = in vivo

Structure (SMILES): N=C(N)NCCC[C@H](N)C(=O)O [L-arginine]
incidence of PE (pre-eclampsia): significantly reduce, but not eliminate

time to peak levels following ingestion: one to two | rise of serum concentration (amount of drug in circulation) (following ingestion): 250% to 600
Structure (SMILES): N[C@@H](Cc1cc(I)c(Oc2ccc(O)c(I)c2)c(I)c1)C(=O)O [T3, L-tri-iodothyronine]
PDE activity after administration (cyclic nucleotide PDE): returned to normal

half-life [1]: 5 to 7 days
Structure (SMILES): N[C@@H](Cc1cc(I)c(Oc2cc(I)c(O)c(I)c2)c(I)c1)C(=O)O [T4, L-thyroxine]

half-life [1]: 0.708 to 0.75 days
Structure (SMILES): CN1CC(=O)N2[C@H](c3ccc4c(c3)OCO4)c3[nH]c4ccccc4c3C[C@@H]2C1=O [tadalafil]
